The target of test [1] is human phosphoinositide-3 kinase (PI3K) delta (Homo sapiens (Human), UniProt O00329). Put plainly: PI3K-mediated Akt 1/2 (S473) phosphorylation in Rat-1 cells overexpressing PI3K delta. Conditions: cellular assay, p-AKT(Ser473), read-out: Cell PI3K delta IC50. It counts as cell-based.
For test [2], the target named is human phosphoinositide-3 kinase (PI3K) alpha (Homo sapiens (Human), UniProt P42336). The test can be described thus: PI3K-mediated Akt 1/2 (S473) phosphorylation in Rat-1 cells overexpressing PI3K alpha. In kind it is cell-based, rat cells expressing human PI3K alpha. The note with it: cellular assay, p-AKT(Ser473), read-out: Cell PI3K alpha IC50.
Sequence of human phosphoinositide-3 kinase (PI3K) alpha (P42336 whole entry): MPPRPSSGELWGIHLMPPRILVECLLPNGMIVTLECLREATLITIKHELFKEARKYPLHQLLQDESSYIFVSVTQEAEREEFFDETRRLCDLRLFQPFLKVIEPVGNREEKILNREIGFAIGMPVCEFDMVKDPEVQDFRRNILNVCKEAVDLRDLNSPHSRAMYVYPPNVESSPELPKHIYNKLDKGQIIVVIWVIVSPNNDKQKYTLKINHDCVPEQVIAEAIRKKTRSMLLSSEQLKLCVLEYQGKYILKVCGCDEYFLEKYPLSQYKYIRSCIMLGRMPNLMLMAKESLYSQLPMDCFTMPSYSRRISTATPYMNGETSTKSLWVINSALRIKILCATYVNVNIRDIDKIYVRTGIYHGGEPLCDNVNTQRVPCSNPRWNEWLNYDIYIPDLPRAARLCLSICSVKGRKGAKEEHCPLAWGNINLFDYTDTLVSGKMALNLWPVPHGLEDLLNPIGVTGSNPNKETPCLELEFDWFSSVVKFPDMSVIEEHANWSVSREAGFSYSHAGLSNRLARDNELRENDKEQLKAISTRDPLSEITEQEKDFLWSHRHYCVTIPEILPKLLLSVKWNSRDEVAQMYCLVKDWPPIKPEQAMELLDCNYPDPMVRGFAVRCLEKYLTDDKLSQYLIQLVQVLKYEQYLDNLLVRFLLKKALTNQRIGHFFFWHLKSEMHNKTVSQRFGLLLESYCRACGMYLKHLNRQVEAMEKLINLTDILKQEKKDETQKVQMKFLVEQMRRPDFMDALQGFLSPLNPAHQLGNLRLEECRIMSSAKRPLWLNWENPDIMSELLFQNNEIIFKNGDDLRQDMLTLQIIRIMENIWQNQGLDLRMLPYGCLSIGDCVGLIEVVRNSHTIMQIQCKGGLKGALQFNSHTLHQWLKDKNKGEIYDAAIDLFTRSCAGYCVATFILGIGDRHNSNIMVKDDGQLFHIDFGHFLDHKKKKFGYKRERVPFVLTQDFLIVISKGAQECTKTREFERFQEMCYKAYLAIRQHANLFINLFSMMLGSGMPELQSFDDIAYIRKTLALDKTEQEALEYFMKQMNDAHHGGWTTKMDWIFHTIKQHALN
Sequence of human phosphoinositide-3 kinase (PI3K) alpha (Q63787 whole entry partner): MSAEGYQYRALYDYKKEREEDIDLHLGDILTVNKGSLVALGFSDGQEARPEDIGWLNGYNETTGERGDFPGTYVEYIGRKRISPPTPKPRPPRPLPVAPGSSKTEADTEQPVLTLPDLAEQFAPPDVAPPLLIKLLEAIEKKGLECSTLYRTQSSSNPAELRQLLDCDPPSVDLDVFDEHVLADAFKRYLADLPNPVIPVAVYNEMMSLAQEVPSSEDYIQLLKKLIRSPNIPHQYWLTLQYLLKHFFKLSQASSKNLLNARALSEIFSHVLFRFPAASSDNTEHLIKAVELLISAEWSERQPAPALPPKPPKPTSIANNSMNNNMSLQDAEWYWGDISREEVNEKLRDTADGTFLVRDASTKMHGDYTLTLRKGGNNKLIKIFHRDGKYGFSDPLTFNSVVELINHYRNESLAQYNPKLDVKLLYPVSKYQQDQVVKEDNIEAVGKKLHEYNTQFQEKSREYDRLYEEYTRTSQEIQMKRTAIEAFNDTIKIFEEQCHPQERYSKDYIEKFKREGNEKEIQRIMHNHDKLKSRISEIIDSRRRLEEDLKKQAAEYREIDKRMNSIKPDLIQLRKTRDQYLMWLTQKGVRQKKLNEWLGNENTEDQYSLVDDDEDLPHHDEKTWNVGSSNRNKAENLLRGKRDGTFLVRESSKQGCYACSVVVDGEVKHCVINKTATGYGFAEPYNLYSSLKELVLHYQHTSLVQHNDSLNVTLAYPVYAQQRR

Sequence of human phosphoinositide-3 kinase (PI3K) delta (O00329 whole entry): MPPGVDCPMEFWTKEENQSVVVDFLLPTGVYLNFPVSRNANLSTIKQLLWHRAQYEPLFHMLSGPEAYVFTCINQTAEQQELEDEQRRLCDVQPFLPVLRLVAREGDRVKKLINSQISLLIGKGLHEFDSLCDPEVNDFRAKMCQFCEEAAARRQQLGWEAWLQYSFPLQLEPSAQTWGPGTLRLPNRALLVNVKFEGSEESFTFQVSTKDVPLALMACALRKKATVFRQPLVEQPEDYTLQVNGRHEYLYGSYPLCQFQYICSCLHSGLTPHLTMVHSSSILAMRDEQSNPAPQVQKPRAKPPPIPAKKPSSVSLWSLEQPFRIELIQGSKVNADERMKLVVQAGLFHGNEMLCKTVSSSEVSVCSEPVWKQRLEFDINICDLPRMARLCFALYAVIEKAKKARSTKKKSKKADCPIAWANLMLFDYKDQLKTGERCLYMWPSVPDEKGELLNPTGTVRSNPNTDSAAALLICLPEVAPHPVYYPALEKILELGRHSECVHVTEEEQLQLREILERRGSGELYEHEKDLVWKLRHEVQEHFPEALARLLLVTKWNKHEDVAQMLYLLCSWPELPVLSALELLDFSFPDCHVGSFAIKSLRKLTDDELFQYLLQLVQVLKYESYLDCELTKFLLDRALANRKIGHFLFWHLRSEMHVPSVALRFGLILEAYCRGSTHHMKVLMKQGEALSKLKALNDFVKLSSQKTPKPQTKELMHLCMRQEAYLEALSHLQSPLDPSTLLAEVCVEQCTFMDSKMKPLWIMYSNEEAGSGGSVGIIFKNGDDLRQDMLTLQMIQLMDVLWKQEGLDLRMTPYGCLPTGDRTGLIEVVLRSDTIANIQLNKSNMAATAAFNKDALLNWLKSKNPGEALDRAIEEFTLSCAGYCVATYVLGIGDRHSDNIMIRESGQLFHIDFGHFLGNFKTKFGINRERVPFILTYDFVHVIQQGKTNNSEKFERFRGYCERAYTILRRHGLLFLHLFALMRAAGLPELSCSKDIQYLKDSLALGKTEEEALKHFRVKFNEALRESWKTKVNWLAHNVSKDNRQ
Sequence of human phosphoinositide-3 kinase (PI3K) delta (Q63787 whole entry partner): as the sequence (Q63787 whole entry partner) above

Take `Cc1ncc(-c2cccc3nc([C@@H]4CCCN4c4nc(N)nc(C)c4C#N)n(-c4ccccc4)c(=O)c23)cn1` [Example 19, (S)-2-Amino-4-methyl-6-(2-(5-(2-methylpyrimidin-5-yl)-4-oxo-3-phenyl-3,4-dihydroquinazolin-2-yl)pyrrolidin-1-yl)pyrimidine-5-carbonitrile]: the IC50 was below 3 nM in test [1] and 5400 nM in test [2].
`Cc1nc(N)nc(N2CCC[C@H]2c2nc3cccc(-c4cccnc4)c3c(=O)n2-c2ccccc2)c1C#N` [Example 20, (S)-2-Amino-4-methyl-6-(2-(4-oxo-3-phenyl-5-(pyridin-3-yl)-3,4-dihydroquinazolin-2-yl)pyrrolidin-1-yl)pyrimidine-5-carbonitrile]: the values for the IC50 in test [1] and in test [2] were below 3 nM and 1500 nM, respectively.
In the case of `COc1ccc(-c2cccc3nc([C@@H]4CCCN4c4nc(N)nc(C)c4C#N)n(-c4ccccc4)c(=O)c23)cn1` [Example 21, (S)-2-Amino-4-(2-(5-(6-methoxypyridin-3-yl)-4-oxo-3-phenyl-3,4-dihydroquinazolin-2-yl)pyrrolidin-1-yl)-6-methylpyrimidine-5-carbonitrile], the IC50 is 13 nM in test [1] and 2500 nM in test [2].
Consider `COc1ncc(-c2cccc3nc([C@@H]4C[C@H](O)CN4c4nc(N)nc(C)c4C#N)n(-c4ccccc4)c(=O)c23)cn1` [Example 22, 2-Amino-4-((2S,4S)-4-hydroxy-2-(5-(2-methoxypyrimidin-5-yl)-4-oxo-3-phenyl-3,4-dihydroquinazolin-2-yl)pyrrolidin-1-yl)-6-methylpyrimidine-5-carbonitrile], for which the IC50 in test [1] is 7 nM; in test [2], above 10000 nM.
On to `Cc1nc(N)nc(N2C[C@@H](O)C[C@H]2c2nc3cccc(-c4cccnc4)c3c(=O)n2-c2ccccc2)c1C#N` [Example 24, 2-Amino-4-((2S,4S)-4-hydroxy-2-(4-oxo-3-phenyl-5-(pyridin-3-yl)-3,4-dihydroquinazolin-2-yl)pyrrolidin-1-yl)-6-methylpyrimidine-5-carbonitrile], for which the results for the IC50 in test [1] and in test [2] were below 3 nM and 5000 nM, respectively.
Taken in the same sequence, the figures for `COc1cncc(-c2cccc3nc([C@@H]4C[C@H](O)CN4c4nc(N)nc(C)c4C#N)n(-c4ccccc4)c(=O)c23)c1` [Example 25, 2-Amino-4-((2S,4S)-4-hydroxy-2-(5-(5-methoxypyridin-3-yl)-4-oxo-3-phenyl-3,4-dihydroquinazolin-2-yl)pyrrolidin-1-yl)-6-methylpyrimidine-5-carbonitrile] were 4 nM and 1900 nM.
For the compound `Cc1nc(N)nc(N2C[C@@H](O)C[C@H]2c2nc3cccc(-c4cncnc4)c3c(=O)n2-c2ccccc2)c1C#N` [Example 26, 2-Amino-4-((2S,4S)-4-hydroxy-2-(4-oxo-3-phenyl-5-(pyrimidin-5-yl)-3,4-dihydroquinazolin-2-yl)pyrrolidin-1-yl)-6-methylpyrimidine-5-carbonitrile], the figures for the IC50 in test [1] and in test [2] were 7 nM and above 6500 nM, respectively.
The like results for `COc1ccc(-c2cccc3nc([C@@H]4C[C@H](O)CN4c4nc(N)nc(C)c4C#N)n(-c4ccccc4)c(=O)c23)cn1` [Example 27, 2-Amino-4-((2S,4S)-4-hydroxy-2-(5-(6-methoxypyridin-3-yl)-4-oxo-3-phenyl-3,4-dihydroquinazolin-2-yl)pyrrolidin-1-yl)-6-methylpyrimidine-5-carbonitrile] were, in that order, 6 nM and 1300 nM.
Take `Cc1nc(N)nc(N2C[C@@H](O)C[C@H]2c2nc3cccc(-c4cnn(CCO)c4)c3c(=O)n2-c2ccccc2)c1C#N` [Example 28, 2-Amino-4-((2S,4S)-4-hydroxy-2-(5-(1-(2-hydroxyethyl)-1H-pyrazol-4-yl)-4-oxo-3-phenyl-3,4-dihydroquinazolin-2-yl)pyrrolidin-1-yl)-6-methylpyrimidine-5-carbonitrile]: the IC50 in test [1] is 90 nM; in test [2] it was above 10000 nM.
For the compound `CCOc1ncc(-c2c(F)ccc3nc([C@@H]4C[C@H](O)CN4c4nc(N)nc(C)c4C#N)n(-c4ccccc4)c(=O)c23)cn1` [Example 29, 2-Amino-4-((2S,4S)-2-(5-(2-ethoxypyrimidin-5-yl)-6-fluoro-4-oxo-3-phenyl-3,4-dihydroquinazolin-2-yl)-4-hydroxypyrrolidin-1-yl)-6-methylpyrimidine-5-carbonitrile], the IC50 worked out at 6 nM in test [1] and 2700 nM in test [2].
The like results for `Cc1nc(N)nc(N2C[C@@H](F)C[C@H]2c2nc3cccc(-c4cnn(C)c4)c3c(=O)n2-c2ccccc2)c1C#N` [Example 30, 2-Amino-4-((2S,4S)-4-fluoro-2-(5-(1-methyl-1H-pyrazol-4-yl)-4-oxo-3-phenyl-3,4-dihydroquinazolin-2-yl)pyrrolidin-1-yl)-6-methylpyrimidine-5-carbonitrile] were, in that order, below 10 nM and 2300 nM.
As for `Cc1nc(N)nc(N2C[C@@H](O)C[C@H]2c2nc3ccc(F)c(-c4cn(C)cn4)c3c(=O)n2-c2ccccc2)c1C#N` [Example 31, 2-Amino-4-((2S,4S)-2-(6-fluoro-5-(1-methyl-1H-imidazol-4-yl)-4-oxo-3-phenyl-3,4-dihydroquinazolin-2-yl)-4-hydroxypyrrolidin-1-yl)-6-methylpyrimidine-5-carbonitrile], the results for the IC50 in test [1] and in test [2] were 120 nM and above 10000 nM, respectively.
As to `CCOc1ncc(-c2cccc3nc([C@@H]4CCCN4c4nc(N)nc(C)c4C#N)n(-c4ccccc4)c(=O)c23)cn1` [Example 32, (S)-2-Amino-4-(2-(5-(2-ethoxypyrimidin-5-yl)-4-oxo-3-phenyl-3,4-dihydroquinazolin-2-yl)pyrrolidin-1-yl)-6-methylpyrimidine-5-carbonitrile], the IC50 in test [1] was below 3 nM; in test [2], 2400 nM.
As for `N#Cc1c(N)ncnc1N1CCC[C@H]1c1nc2cccc(C#CCO)c2c(=O)n1-c1ccccc1` [Example 33, (S)-4-Amino-6-(2-(5-(3-hydroxyprop-1-yn-1-yl)-4-oxo-3-phenyl-3,4-dihydroquinazolin-2-yl)pyrrolidin-1-yl)pyrimidine-5-carbonitrile], the IC50 was determined as 14 nM in test [1] and 6500 nM in test [2].
